Results taken from the NIST ThermoML archive (doi:10.1021/je060271a).
“And” between values parts separate entries of the source, which are not always exact repeats. Equal values may be shown once. ± gives the expanded uncertainty stated by the source.

Details: Liquid, Vibrating tube method

CCCCCCC(=O)OCC(COC(=O)CCCCCC)(COC(=O)CCCCCC)COC(=O)CCCCCC [pentaerythritol tetraheptanoate]
Details | mass density
283.15 K, 2785.2 kPa | 987.5 ± 1.2 kg/m3
283.15 K, 4763 kPa | 988.5 ± 1.2 kg/m3
283.15 K, 4768.7 kPa | 988.7 ± 1.2 kg/m3
283.15 K, 5143.5 kPa | 988.8 ± 1.2 kg/m3
283.15 K, 5150.3 kPa | 988.9 ± 1.2 kg/m3
283.15 K, 5157.6 kPa | 988.7 ± 1.2 kg/m3
283.15 K, 5164.1 kPa | 988.8 ± 1.2 kg/m3
283.15 K, 5170.9 kPa | 988.9 ± 1.2 kg/m3
283.15 K, 5178.5 kPa | 988.9 ± 1.2 kg/m3
283.15 K, 5185.2 kPa | 988.8 ± 1.2 kg/m3
283.15 K, 5558.2 kPa | 989.1 ± 1.2 kg/m3
283.15 K, 5573.4 kPa | 989.1 ± 1.2 kg/m3
283.15 K, 5748.5 kPa | 989.3 ± 1.2 kg/m3
283.15 K, 5758 kPa | 989.2 ± 1.2 kg/m3
283.15 K, 5766.1 kPa | 989.3 ± 1.2 kg/m3
283.15 K, 9627.4 kPa | 991.5 ± 1.2 kg/m3
283.15 K, 9754 kPa | 991.6 ± 1.2 kg/m3
283.15 K, 9827.4 kPa | 991.6 ± 1.2 kg/m3
283.15 K, 15376 kPa | 994.5 ± 1.2 kg/m3
283.15 K, 15402 kPa | 994.5 ± 1.2 kg/m3
283.15 K, 15424 kPa | 994.5 ± 1.2 kg/m3
283.15 K, 15447 kPa | 994.5 ± 1.2 kg/m3
283.15 K, 15473 kPa | 994.5 ± 1.2 kg/m3
283.15 K, 15496 kPa | 994.5 ± 1.2 kg/m3
283.15 K, 15518 kPa | 994.4 ± 1.2 kg/m3
283.15 K, 15545 kPa | 994.6 ± 1.2 kg/m3
283.15 K, 16561 kPa | 995.2 ± 1.2 kg/m3
283.15 K, 16643 kPa | 995.1 ± 1.2 kg/m3
283.15 K, 16700 kPa | 995.2 ± 1.2 kg/m3
283.15 K, 17302 kPa | 995.5 ± 1.2 kg/m3
283.15 K, 17330 kPa | 995.5 ± 1.2 kg/m3
283.15 K, 17392 kPa | 995.5 ± 1.2 kg/m3
283.15 K, 17420 kPa | 995.6 ± 1.2 kg/m3
283.15 K, 19724 kPa | 996.7 ± 1.2 kg/m3
283.15 K, 24690 kPa | 999.4 ± 1.2 kg/m3
283.15 K, 24805 kPa | 999.3 ± 1.2 kg/m3
283.15 K, 25965 kPa | 999.9 ± 1.2 kg/m3
283.15 K, 26012 kPa | 1000.1 ± 1.2 kg/m3
283.15 K, 26052 kPa | 1000.1 ± 1.2 kg/m3
283.15 K, 26093 kPa | 1000.1 ± 1.2 kg/m3
283.15 K, 26133 kPa | 1000.1 ± 1.2 kg/m3
283.15 K, 26183 kPa | 1000.1 ± 1.2 kg/m3
283.15 K, 26224 kPa | 1000.1 ± 1.2 kg/m3
283.15 K, 26317 kPa | 1000.1 ± 1.2 kg/m3
283.15 K, 26361 kPa | 1000.1 ± 1.2 kg/m3
283.15 K, 26458 kPa | 1000.2 ± 1.2 kg/m3
283.15 K, 26749 kPa | 1000.4 ± 1.2 kg/m3
283.15 K, 26807 kPa | 1000.4 ± 1.2 kg/m3
283.15 K, 26833 kPa | 1000.4 ± 1.2 kg/m3
283.15 K, 26860 kPa | 1000.5 ± 1.2 kg/m3
283.15 K, 26892 kPa | 1000.5 ± 1.2 kg/m3
283.15 K, 26918 kPa | 1000.5 ± 1.2 kg/m3
283.15 K, 26978 kPa | 1000.5 ± 1.2 kg/m3
283.15 K, 27117 kPa | 1000.7 ± 1.2 kg/m3
283.15 K, 27150 kPa | 1000.5 ± 1.2 kg/m3
283.15 K, 27176 kPa | 1000.7 ± 1.2 kg/m3
283.15 K, 27209 kPa | 1000.6 ± 1.2 kg/m3
283.15 K, 27237 kPa | 1000.6 ± 1.2 kg/m3
283.15 K, 27264 kPa | 1000.6 ± 1.2 kg/m3
283.15 K, 27324 kPa | 1000.7 ± 1.2 kg/m3
283.15 K, 27352 kPa | 1000.7 ± 1.2 kg/m3
283.15 K, 27599 kPa | 1000.8 ± 1.2 kg/m3
283.15 K, 27618 kPa | 1000.8 ± 1.2 kg/m3
283.15 K, 27642 kPa | 1000.9 ± 1.2 kg/m3
283.15 K, 27661 kPa | 1000.8 ± 1.2 kg/m3
283.15 K, 27681 kPa | 1000.9 ± 1.2 kg/m3
283.15 K, 27896 kPa | 1001.1 ± 1.2 kg/m3
283.15 K, 27916 kPa | 1001.1 ± 1.2 kg/m3
283.15 K, 27936 kPa | 1000.9 ± 1.2 kg/m3
283.15 K, 27956 kPa | 1001 ± 1.2 kg/m3
283.15 K, 28022 kPa | 1001 ± 1.2 kg/m3
283.15 K, 30230 kPa | 1002.1 ± 1.2 kg/m3
283.15 K, 33971 kPa | 1003.9 ± 1.2 kg/m3
283.15 K, 34009 kPa | 1004.1 ± 1.2 kg/m3
283.15 K, 34041 kPa | 1003.9 ± 1.2 kg/m3
283.15 K, 34067 kPa | 1004 ± 1.2 kg/m3
283.15 K, 34100 kPa | 1004.1 ± 1.2 kg/m3
283.15 K, 34146 kPa | 1004.3 ± 1.2 kg/m3
283.15 K, 34179 kPa | 1004 ± 1.2 kg/m3
283.15 K, 34214 kPa | 1004.2 ± 1.2 kg/m3
283.15 K, 34255 kPa | 1004.1 ± 1.2 kg/m3
283.15 K, 34291 kPa | 1004.1 ± 1.2 kg/m3
283.15 K, 34334 kPa | 1004.2 ± 1.2 kg/m3 and 1004.1 ± 1.2 kg/m3
283.15 K, 34346 kPa | 1004.1 ± 1.2 kg/m3
283.15 K, 34372 kPa | 1004.2 ± 1.2 kg/m3
283.15 K, 34412 kPa | 1004.3 ± 1.2 kg/m3
283.15 K, 34450 kPa | 1004.2 ± 1.2 kg/m3
283.15 K, 34481 kPa | 1004.2 ± 1.2 kg/m3
283.15 K, 34492 kPa | 1004.2 ± 1.2 kg/m3
283.15 K, 34503 kPa | 1004.4 ± 1.2 kg/m3
283.15 K, 34516 kPa | 1004.2 ± 1.2 kg/m3
283.15 K, 34528 kPa | 1004.3 ± 1.2 kg/m3
283.15 K, 34542 kPa | 1004.4 ± 1.2 kg/m3
283.15 K, 34553 kPa | 1004.4 ± 1.2 kg/m3
283.15 K, 34565 kPa | 1004.4 ± 1.2 kg/m3
283.15 K, 34574 kPa | 1004.3 ± 1.2 kg/m3
283.15 K, 34579 kPa | 1004.3 ± 1.2 kg/m3
283.15 K, 34594 kPa | 1004.5 ± 1.2 kg/m3
283.15 K, 34601 kPa | 1004.3 ± 1.2 kg/m3
283.15 K, 34603 kPa | 1004.2 ± 1.2 kg/m3
283.15 K, 34606 kPa | 1004.3 ± 1.2 kg/m3
303.14 K, 99.6 kPa | 970.8 ± 1.2 kg/m3
303.14 K, 99.8 kPa | 970.7 ± 1.2 kg/m3 and 970.8 ± 1.2 kg/m3 and 970.9 ± 1.2 kg/m3
303.14 K, 99.9 kPa | 970.8 ± 1.2 kg/m3 and 970.9 ± 1.2 kg/m3 and 970.7 ± 1.2 kg/m3
303.14 K, 100.1 kPa | 970.7 ± 1.2 kg/m3 and 970.6 ± 1.2 kg/m3
303.14 K, 100.3 kPa | 970.7 ± 1.2 kg/m3
303.14 K, 100.6 kPa | 970.8 ± 1.2 kg/m3
303.14 K, 101.7 kPa | 970.7 ± 1.2 kg/m3
303.14 K, 103.8 kPa | 970.7 ± 1.2 kg/m3
303.14 K, 107.4 kPa | 970.8 ± 1.2 kg/m3
303.14 K, 118.5 kPa | 970.8 ± 1.2 kg/m3
303.14 K, 136.8 kPa | 970.7 ± 1.2 kg/m3
